Assay results published in PubChem BioAssay AID248 (DTP/NCI, 2004).
Several values for one entry are separate records, joined by “and”; a condition that tells them apart may be missing. Equal entries are not always repeated. Toxic doses and inconclusive results are not listed. No stated cut-off is given here; in the data, active means T/C of 150% or more; inactive means T/C below 125%.

Tested on: L1210 leukemia ip in BDF1 mice, survival T/C
Test: NCI In Vivo Anticancer Drug Screen. Data for tumor model L1210 Leukemia (intraperitoneal) in B6D2F1 (BDF1) mice
Conditions: endpoint: mean survival time, higher = longer survival
Outline: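 Ratio derived from survival: compound-dosed mice over vehicle-dosed mice, all bearing a transplantable tumor.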

[1] = dose: 100.0 mg/kg/injection, schedule: Q04DX003 (ip), vehicle: saline
[2] = dose: 200.0 mg/kg/injection, schedule: Q04DX003 (ip), vehicle: saline
[3] = dose: 400.0 mg/kg/injection, schedule: Q04DX003 (ip), vehicle: saline
[4] = dose: 100.0 mg/kg/injection, schedule: Q01DX009 (ip), vehicle: saline
[5] = dose: 100.0 mg/kg/injection, schedule: Q01DX001 (ip), vehicle: saline
[6] = dose: 200.0 mg/kg/injection, schedule: Q01DX001 (ip), vehicle: saline
[7] = dose: 400.0 mg/kg/injection, schedule: Q01DX001 (ip), vehicle: saline
[8] = dose: 100.0 mg/kg/injection, schedule: Q01DX001 (ip), vehicle: saline with Tween-80
[9] = dose: 100.0 mg/kg/injection, schedule: Q04DX002 (ip), vehicle: saline
[10] = dose: 200.0 mg/kg/injection, schedule: Q01DX001 (ip), vehicle: saline with Tween-80
[11] = dose: 200.0 mg/kg/injection, schedule: Q04DX002 (ip), vehicle: saline
[12] = dose: 100.0 mg/kg/injection, schedule: Q04DX002 (ip), vehicle: saline with Tween-80
[13] = dose: 200.0 mg/kg/injection, schedule: Q04DX002 (ip), vehicle: saline with Tween-80
[14] = dose: 400.0 mg/kg/injection, schedule: Q04DX002 (ip), vehicle: saline with Tween-80
[15] = dose: 100.0 mg/kg/injection, schedule: Q01DX009 (ip), vehicle: saline with Tween-80
[16] = dose: 100.0 mg/kg/injection, schedule: Q04DX003 (ip), vehicle: saline with Tween-80
[17] = dose: 200.0 mg/kg/injection, schedule: Q01DX009 (ip), vehicle: saline with Tween-80
[18] = dose: 200.0 mg/kg/injection, schedule: Q04DX003 (ip), vehicle: saline with Tween-80
[19] = dose: 400.0 mg/kg/injection, schedule: Q04DX003 (ip), vehicle: saline with Tween-80
[20] = dose: 100.0 mg/kg/injection, schedule: Q01DX001 (ip), vehicle: Klucel (hydroxypropylcellulose) (HPC)
[21] = dose: 200.0 mg/kg/injection, schedule: Q01DX001 (ip), vehicle: Klucel (hydroxypropylcellulose) (HPC)

Measured: T/C

OCC[S+](CCO)CCO
inactive: [1] 105 % of control | [2] 102 % of control | [3] 104 % of control

O=C1C=C(O)C(c2ccccc2)=CC1=O
inactive: dose: 100.0 mg/kg/injection, schedule: Q01DX001 (ip), vehicle: water 104 % of control | dose: 200.0 mg/kg/injection, schedule: Q01DX001 (ip), vehicle: water 119 % of control

N#[N+]c1ccc2[nH]c3ccccc3c(=O)c2c1
inactive: dose: 5.0 mg/kg/injection, schedule: Q01DX009 (ip), vehicle: saline 105 % of control | dose: 10.0 mg/kg/injection, schedule: Q01DX001 (ip), vehicle: saline 101 % of control | dose: 10.0 mg/kg/injection, schedule: Q01DX009 (ip), vehicle: saline 102 % of control | dose: 10.0 mg/kg/injection, schedule: Q04DX003 (ip), vehicle: saline 94 % of control | dose: 20.0 mg/kg/injection, schedule: Q01DX001 (ip), vehicle: saline 101 % of control | dose: 20.0 mg/kg/injection, schedule: Q01DX009 (ip), vehicle: saline 94 % of control | dose: 20.0 mg/kg/injection, schedule: Q04DX003 (ip), vehicle: saline 97 % of control | dose: 40.0 mg/kg/injection, schedule: Q01DX001 (ip), vehicle: saline 104 % of control | dose: 40.0 mg/kg/injection, schedule: Q04DX003 (ip), vehicle: saline 97 % of control

O=C(Nc1cc(C(F)(F)F)ccc1Cl)c1ccc(Cl)cc1
inactive: dose: 100.0 mg/kg/injection, schedule: Q01DX009 (ip), vehicle: Klucel (hydroxypropylcellulose) (HPC) 110 % of control | [1] 103 % of control | dose: 200.0 mg/kg/injection, schedule: Q01DX009 (ip), vehicle: Klucel (hydroxypropylcellulose) (HPC) 94 % of control | [2] 114 % of control | dose: 400.0 mg/kg/injection, schedule: Q01DX009 (ip), vehicle: Klucel (hydroxypropylcellulose) (HPC) 94 % of control | [3] 106 % of control

CCOC(=O)C(C)N1C(=O)c2ccccc2C1=O (configuration not stated)
inactive: dose: 100.0 mg/kg/injection, schedule: Q04DX002 (ip), vehicle: Klucel (hydroxypropylcellulose) (HPC) 100 % of control | dose: 200.0 mg/kg/injection, schedule: Q04DX002 (ip), vehicle: Klucel (hydroxypropylcellulose) (HPC) 104 % of control | dose: 400.0 mg/kg/injection, schedule: Q04DX002 (ip), vehicle: Klucel (hydroxypropylcellulose) (HPC) 100 % of control

CCC(C)C(CCN(C)C)(CNC(=O)CN(CC)CC)c1cccc2ccccc12 (configuration not stated)
inactive: [4] 96 % of control | dose: 200.0 mg/kg/injection, schedule: Q01DX009 (ip), vehicle: saline 91 % of control

NC1C(O)CCCC1O (configuration not stated)
inactive: [5] 107 % of control | [6] 102 % of control | [7] 102 % of control

C/C(Cl)=C/C(=O)O
inactive: dose: 25.0 mg/kg/injection, schedule: Q04DX002 (ip), vehicle: saline 106 % of control | dose: 50.0 mg/kg/injection, schedule: Q04DX002 (ip), vehicle: saline 92 % of control | [8] 102 % of control | [9] 92 % of control | [10] 105 % of control | [11] 98 % of control and 102 % of control | dose: 400.0 mg/kg/injection, schedule: Q01DX001 (ip), vehicle: saline with Tween-80 96 % of control

CCOC(=O)CNC(=O)Cn1ccc(=O)[nH]c1=O
inactive: dose: 50.0 mg/kg/injection, schedule: Q01DX001 (ip), vehicle: saline 96 % of control | [5] 98 % of control | [6] 98 % of control

CC(N)c1ccccc1 (configuration not stated)
inactive: [8] 95 % of control | [10] 90 % of control

O=C(COc1cc(Cl)c(Cl)cc1Cl)Nc1ccc([N+](=O)[O-])cc1Cl
inactive: [12] 102 % of control | [13] 109 % of control | [14] 98 % of control

C=CC(=O)N1c2ccccc2N(C(=O)C=C)C(C)C1C (configuration not stated)
inactive: [5] 112 % of control | [6] 104 % of control | [7] 98 % of control

Cc1csc(C)n1
inactive: [15] 95 % of control | [16] 103 % of control | [17] 95 % of control | [18] 107 % of control | [19] 107 % of control

CCOC(=O)NC(NC(=O)OCC)c1ccc(Cl)cc1Cl
inactive: dose: 100.0 mg/kg/injection, schedule: Q01DX001 (ip), vehicle: carboxymethylcellulose (CMC) 88 % of control | dose: 400.0 mg/kg/injection, schedule: Q01DX001 (ip), vehicle: carboxymethylcellulose (CMC) 88 % of control

COc1ccc(C2(c3ccccc3)OC(=O)c3ccccc32)c2ccccc12 (configuration not stated)
inactive: dose: 100.0 mg/kg/injection, schedule: Q01DX001 (ip), vehicle: other 110 % of control | dose: 100.0 mg/kg/injection, schedule: Q04DX003 (ip), vehicle: other 104 % of control | dose: 200.0 mg/kg/injection, schedule: Q01DX001 (ip), vehicle: other 92 % of control | dose: 200.0 mg/kg/injection, schedule: Q04DX003 (ip), vehicle: other 100 % of control | dose: 400.0 mg/kg/injection, schedule: Q01DX001 (ip), vehicle: other 86 % of control | dose: 400.0 mg/kg/injection, schedule: Q04DX003 (ip), vehicle: other 111 % of control

CC1(C)N=C(N)N=C(N)N1c1ccc(Oc2ccc(S(=O)(=O)F)cc2)cc1
inactive: dose: 50.0 mg/kg/injection, schedule: Q01DX001 (ip), vehicle: Klucel (hydroxypropylcellulose) (HPC) 92 % of control | [20] 95 % of control | [21] 100 % of control

COC1C2CCC1[N+](C)(C)CC2 (configuration not stated)
inactive: dose: 25.0 mg/kg/injection, schedule: Q01DX009 (ip), vehicle: saline 101 % of control | dose: 50.0 mg/kg/injection, schedule: Q01DX009 (ip), vehicle: saline 105 % of control | [4] 107 % of control and 110 % of control

O=C(O)c1ccc2c(c1Cl)C(=O)c1ccccc1C2=O
inactive: [16] 98 % of control | [18] 93 % of control

O=C(O)CSC(SCC(=O)O)c1ccc(Cl)cc1Cl
inactive: [9] 94 % of control | [11] 98 % of control | dose: 400.0 mg/kg/injection, schedule: Q04DX002 (ip), vehicle: saline 119 % of control

CCCCn1c(N)n[nH]c1=S
inactive: [16] 100 % of control | [18] 90 % of control | [19] 94 % of control

CCSc1ncnc2c1ncn2C1OC(CO)C(O)C1O (configuration not stated)
inactive: dose: 132.0 mg/kg/injection, schedule: Q04DX003 (ip), vehicle: saline with Tween-80 116 % of control | [18] 124 % of control

CCN(C(=O)c1ccc([N+](=O)[O-])cc1)C(c1ccco1)P(=O)(c1ccccc1)c1ccccc1 (configuration not stated)
inactive: [12] 87 % of control | [13] 87 % of control | [14] 93 % of control

COC(=O)C1C2C=CC(C2=C(C)C)C1C(=O)OC (configuration not stated)
inactive: dose: 50.0 mg/kg/injection, schedule: Q04DX003 (ip), vehicle: Klucel (hydroxypropylcellulose) (HPC) 100 % of control | [20] 92 % of control | dose: 100.0 mg/kg/injection, schedule: Q04DX003 (ip), vehicle: Klucel (hydroxypropylcellulose) (HPC) 98 % of control | [21] 96 % of control | dose: 200.0 mg/kg/injection, schedule: Q04DX003 (ip), vehicle: Klucel (hydroxypropylcellulose) (HPC) 94 % of control | dose: 400.0 mg/kg/injection, schedule: Q01DX001 (ip), vehicle: Klucel (hydroxypropylcellulose) (HPC) 91 % of control

N#CC1(C#N)CC=CCC1(C#N)C#N
inactive: dose: 12.5 mg/kg/injection, schedule: Q01DX009 (ip), vehicle: other 92 % of control | dose: 25.0 mg/kg/injection, schedule: Q01DX009 (ip), vehicle: other 87 % of control

CCP(=O)(CC)CC
inactive: dose: 1000.0 mg/kg/injection, schedule: Q01DX Z (ip), vehicle: saline 104 % of control | dose: 2000.0 mg/kg/injection, schedule: Q01DX Z (ip), vehicle: saline 101 % of control

O=[N+]([O-])c1ccc(N/N=C(/CCCCl)c2ccccc2)c([N+](=O)[O-])c1
inactive: [16] 96 % of control | [18] 95 % of control | [19] 91 % of control

COc1ccc(Cc2cc3cc(OC)c(OC)cc3cn2)cc1OC
inactive: [15] 103 % of control | [16] 93 % of control | [17] 105 % of control | [18] 104 % of control | dose: 400.0 mg/kg/injection, schedule: Q01DX009 (ip), vehicle: saline with Tween-80 121 % of control | [19] 90 % of control
